# Laboratory results from EP4793274A1, “SALT AND CRYSTAL FORM OF KIF18A INHIBITOR COMPOUND, PREPARATION METHOD THEREFOR AND USE THEREOF” (Hubei Bio-Pharmaceutical Industrial Technological Institute …, priority 2023, dated 2025).
# Counter-ions that a name gives are not always drawn.
# Tests used:
# [1] = Dynamic solubility at 37 °C in H2O, SGF, FaSSIF and FeSSIF (HPLC concentration, pH of filtrate, XRPD of residual solid); type: physicochemical; conditions: listed as Crystal form A of maleate; for S: solubility: feeding concentration 10 mg/mL; for FC: crystal form change: XRPD of residual solid; for pH: pH of filtrate
# Procedure: 0.82 mL of glacial acetic acid and 1.18 g of NaCl were added to a 100 mL volumetric flask and completely dissolved by addition of purified water.
# The solubility of each sample in H2O, SGF, FaSSIF, and FeSSIF was determined at different time points (1 h, 2 h, 4 h, and 24 h). […] 137-156. […] Table C-2. Summary of dynamic solubility test results at 37 °C
# [2] = Solid state stability (XRPD and HPLC purity); type: physicochemical
# From the text: 167-171. […] Table C-3. Summary of solid state stability evaluation
# [3] = Solubility at room temperature in water, SGF and FaSSIF (HPLC concentration, pH of filtrate, XRPD of residual solid); conditions: listed as Crystal form A of maleate; for S: solubility: feeding concentration 1 mg/mL; for pH: pH of filtrate
# Procedure: 100 mg of NaCl and 50 mg of Triton X-100 were weighed into a 50 mL volumetric flask and then completely dissolved by addition of purified water. 816 µL of 1 M hydrochloric acid was added, and the pH was adjusted to 1.8 with 1 M hydrochloric acid or 1 M NaOH solution. The mixed solution was brought to the volume by addition of purified water.
# 340 mg of anhydrous NaH2PO4 and 620 mg of NaCl were weighed into a 100 mL volumetric flask, and then completely dissolved by addition of purified water. 55.44 µL of a 50% NaOH solution was then added, and the pH was adjusted to 6.5 with 1 M hydrochloric acid or 1 M NaOH solution. The mixed solution was brought to the volume by addition of purified water. Subsequently, 110 mg of SIF powder was weighed into a 50 mL volumetric flask and completely dissolved in the solution described above, and the mixed solution was brought to the volume.
# Solids at a feeding concentration of 1 mg/mL (calculated based on free crystal form) were rotationally mixed with corresponding vehicles at room temperature. […] After sampling at each time point, the samples were centrifuged (at 10000 rpm) and filtered (through a 0.22 µm PTFE filter head), the HPLC concentrations and pH values of the filtrates were determined, and the centrifuged solid samples were subjected to XRPD analysis.
# [4] = Hygroscopicity by dynamic vapor sorption (DVS); type: physicochemical; conditions: 25 °C/80% RH
# Procedure: Dynamic vapor sorption (DVS) curves were acquired on a DVS IntrInsic from Surface Measurement Systems (SMS). The relative humidity at 25 °C was corrected with the deliquescence points of LiCl, Mg(NO3)2, and KCl. Table A-5. DVS test parameters
# The percentage changes in mass of the samples when the humidity changed (0% RH to 95% RH) at a constant temperature of 25 °C were collected. 157-166.
# [5] = 80 °C/sealed, 1 day, listed as Crystal form A of maleate
compound,measurement,setting,value
Cc1cc(-c2cnn(-c3ccc(NS(=O)(=O)CCO)cc3N3CCC4(CC3)CC4)c2)nc(N2CCC(F)(F)CC2)n1 [crystal form A of the maleate],S: solubility,"[1]; FaSSIF, 1 h, 60 min",62.7 µg/mL
same,S: solubility,"[1]; FaSSIF, 2 h, 120 min",48.9 µg/mL
same,S: solubility,"[1]; FaSSIF, 4 h, 240 min",39.7 µg/mL
same,S: solubility,"[1]; FaSSIF, 24 h, 1440 min",25.3 µg/mL
same,S: solubility,"[1]; FeSSIF, 1 h, 60 min",202.5 µg/mL
same,S: solubility,"[1]; FeSSIF, 2 h, 120 min",182.4 µg/mL
same,S: solubility,"[1]; FeSSIF, 4 h, 240 min",169.5 µg/mL
same,S: solubility,"[1]; FeSSIF, 24 h, 1440 min",94 µg/mL
same,S: solubility,"[1]; H2O, 1 h, 60 min",13.9 µg/mL
same,S: solubility,"[1]; H2O, 2 h, 120 min",9.8 µg/mL
same,S: solubility,"[1]; H2O, 4 h, 240 min",5.2 µg/mL
same,S: solubility,"[1]; H2O, 24 h, 1440 min",0.9 µg/mL
same,S: solubility,"[1]; SGF, 1 h, 60 min",79.5 µg/mL
same,S: solubility,"[1]; SGF, 2 h, 120 min",71.8 µg/mL
same,S: solubility,"[1]; SGF, 4 h, 240 min",57.9 µg/mL
same,S: solubility,"[1]; SGF, 24 h, 1440 min",11.1 µg/mL
same,FC: crystal form change,"[1]; FaSSIF, 1 h",Yes
same,FC: crystal form change,"[1]; FaSSIF, 2 h",Yes
same,FC: crystal form change,"[1]; FaSSIF, 4 h",Yes
same,FC: crystal form change,"[1]; FaSSIF, 24 h",Yes
same,FC: crystal form change,"[1]; FeSSIF, 1 h",Yes
same,FC: crystal form change,"[1]; FeSSIF, 2 h",Yes
same,FC: crystal form change,"[1]; FeSSIF, 4 h",Yes
same,FC: crystal form change,"[1]; FeSSIF, 24 h",Yes
same,FC: crystal form change,"[1]; H2O, 1 h",Yes
same,FC: crystal form change,"[1]; H2O, 2 h",Yes
same,FC: crystal form change,"[1]; H2O, 4 h",Yes
same,FC: crystal form change,"[1]; H2O, 24 h",Yes
same,FC: crystal form change,"[1]; SGF, 1 h",Yes
same,FC: crystal form change,"[1]; SGF, 2 h",Yes
same,FC: crystal form change,"[1]; SGF, 4 h",Yes
same,FC: crystal form change,"[1]; SGF, 24 h",Yes
same,pH,"[1]; FaSSIF, 1 h",2.94
same,pH,"[1]; FaSSIF, 2 h",2.90
same,pH,"[1]; FaSSIF, 4 h",2.90
same,pH,"[1]; FaSSIF, 24 h",2.90
same,pH,"[1]; FeSSIF, 1 h",4.66
same,pH,"[1]; FeSSIF, 2 h",4.68
same,pH,"[1]; FeSSIF, 4 h",4.67
same,pH,"[1]; FeSSIF, 24 h",4.70
same,pH,"[1]; H2O, 1 h",2.00
same,pH,"[1]; H2O, 2 h",2.05
same,pH,"[1]; H2O, 4 h",1.98
same,pH,"[1]; H2O, 24 h",2.03
same,pH,"[1]; SGF, 1 h",1.55
same,pH,"[1]; SGF, 2 h",1.57
same,pH,"[1]; SGF, 4 h",1.54
same,pH,"[1]; SGF, 24 h",1.58
same,HPLC results Relative to starting (%),"[2]; 25 °C/60% RH/open, 1 week",100.0%
same,HPLC results Purity (area%),"[2]; 25 °C/60% RH/open, 1 week, listed as Crystal form A of maleate",98.26 area%
same,HPLC results Relative to starting (%),"[2]; 40 °C/75% RH/open, 1 week",100.0%
same,HPLC results Purity (area%),"[2]; 40 °C/75% RH/open, 1 week, listed as Crystal form A of maleate",98.30 area%
same,HPLC results Purity (area%),[2]; [5],98.08 area%
same,HPLC results Relative to starting (%),[2]; [5],99.8%
same,HPLC results Purity (area%),"[2]; Starting, listed as Crystal form A of maleate",98.29 area%
same,Crystal form,"[2]; XRPD after 25 °C/60% RH/open, 1 week, listed as Crystal form A of maleate",Crystal form A of maleate
same,Crystal form,"[2]; XRPD after 40 °C/75% RH/open, 1 week, listed as Crystal form A of maleate",Crystal form A of maleate
same,Crystal form,"[2]; XRPD after 80 °C/sealed, 1 day, listed as Crystal form A of maleate",Crystal form A of maleate
same,S: solubility,"[3]; FaSSIF, 2 h, 120 min",126.8 µg/mL
same,S: solubility,"[3]; FaSSIF, 24 h, 1440 min",47.9 µg/mL
same,S: solubility,"[3]; H2O, 24 h, 1440 min",0.3 µg/mL
same,S: solubility,"[3]; SGF, 2 h, 120 min",51.2 µg/mL
same,S: solubility,"[3]; SGF, 24 h, 1440 min",36.6 µg/mL
same,pH,"[3]; FaSSIF, 2 h",6.4
same,pH,"[3]; FaSSIF, 24 h",6.2
same,vapor sorption values,[4],0.235%
